Test results from patent publication US20210309649A1, “SUBSTITUTED GLUTARIMIDE DERIVATIVES” (BASF SE, priority 2018, published 2021).

What was measured:
Assay type in all cases: in vivo
[1] = system: Euschistus heros; test: Neotropical brown stink bug (Euschistus heros) soybean pod spray test; details: 120 h, read-out: mortality in comparison with untreated controls
Description: (§1) The active compound was dissolved at the desired concentration in a mixture of 1:1 (vol:vol) distilled water:acetone. Surfactant (Kinetic HV) was added at a rate of 0.01% (vol/vol). The test solution was prepared at the day of use.
Soybean pods were placed in microwavable plastic cups and inoculated with ten adult stage E. heros. Using a hand atomizer, approximately 1 ml solution is sprayed into each cup, insects and food present. A water source was provided (cotton wick with water). Each treatment was replicated 2-fold. Assay arenas were kept at about 25° C. Percent mortality was recorded after 5 days.

[2] = system: Dichromothrips corbetti; test: Orchid thrips (Dichromothrips corbetti) floral-immersion test; details: 72 h, read-out: mortality in comparison with untreated controls
Description: Dichromothrips corbetti adults used for bioassay were obtained from a colony maintained continuously under laboratory conditions. For testing purposes, the test compound is diluted in a 1:1 mixture of acetone:water (vol:vol), plus Kinetic HV at a rate of 0.01% v/v.
Thrips potency of each compound was evaluated by using a floral-immersion technique. All petals of individual, intact orchid flowers were dipped into treatment solution and allowed to dry in Petri dishes. Treated petals were placed into individual re-sealable plastic along with about 20 adult thrips. All test arenas were held under continuous light and a temperature of about 28° C. for duration of the assay. After 3 days, the numbers of live thrips were counted on each petal. The percent mortality was recorded 72 hours after treatment.

[3] = system: Anthonomus grandis; test: Boll weevil (Anthonomus grandis) insect diet test; details: 120 h, read-out: mortality in comparison with untreated controls
Description: For evaluating control of boll weevil (Anthonomus grandis) the test unit consisted of 96-well-microtiter plates containing an insect diet and 5-10 A. grandis eggs.
The compounds were formulated using a solution containing 75% v/v water and 25% v/v DMSO. Different concentrations of formulated compounds were sprayed onto the insect diet at 5 μl, using a custom built micro atomizer, at two replications.
After application, microtiter plates were incubated at about 25±1° C. and about 75±5% relative humidity for 5 days. Egg and larval mortality was then visually assessed.

[4] = system: Halyomorpha halys; test: Brown marmorated stink bug (Halyomorpha halys) spray test; details: in Glycine max, 120 h, read-out: mortality in comparison with untreated controls
Description: as §1
Row peanuts and soybean seeds were placed into microwavable plastic cups and inoculated with five adult stage H. halys. Using a hand atomizer, approximately 1 ml solution is sprayed into each cup, insects and food present. A water source was provided (cotton wick with water).
Each treatment is replicated 4-fold. Assay arenas are kept at about 25° C. Percent mortality was recorded after 5 days.

[5] = system: Plutella xylostella; test: Diamond back moth (Plutella xylostella) cabbage leaf dip test; details: foliar, 72 h, read-out: mortality in comparison with untreated controls
Description: The active compound was dissolved at the desired concentration in a mixture of 1:1 (vol:vol) distilled water:aceteone. Surfactant (Kinetic HV) was added at a rate of 0.01% (vol/vol). The test solution was prepared at the day of use.
Leaves of cabbage were dipped in test solution and air-dried. Treated leaves were placed in petri dishes lined with moist filter paper and inoculated with ten 3rd instar larvae. Mortality was recorded 72 hours after treatment. Feeding damages were also recorded using a scale of 0-100%.

[6] = system: Heliothis virescens; test: Tobacco budworm (Heliothis virescens) insect diet test; details: 120 h, read-out: mortality in comparison with untreated controls
Description: For evaluating control of tobacco budworm (Heliothis virescens) the test unit consisted of 96-well-microtiter plates containing an insect diet and 15-25 H. virescens eggs.
The compounds were formulated using a solution containing 75% v/v water and 25% v/v DMSO. Different concentrations of formulated compounds were sprayed onto the insect diet at 10 μl, using a custom built micro atomizer, at two replications.
After application, microtiter plates were incubated at about 28±1° C. and about 80±5% relative humidity for 5 days. Egg and larval mortality was then visually assessed.

[7] = system: Tetranychus kanzawai; test: Red spider mite (Tetranychus kanzawai) cowpea bean spray test; details: 72 h, read-out: mortality in comparison with untreated controls
Description: The active compound was dissolved at the desired concentration in a mixture of 1:1 (vol:vol) distilled water:acetone. Add surfactant (Kinetic HV) was added at a rate of 0.01% (vol/vol). The test solution was prepared at the day of use.
Potted cowpea beans of 4-5 days of age were cleaned with tap water and sprayed with 1-2 ml of the test solution using air driven hand atomizer. The treated plants were allowed to air dry and afterwards inoculated with 30 or more mites by clipping a cassava leaf section from rearing population. Treated plants were placed inside a holding room at about 25-27° C. and about 50-60% relative humidity. Percent mortality was assessed 72 hours after treatment.

[8] = system: Megoura viciae; test: Vetch aphid (Megoura viciae) leaf disk test; details: foliar, 120 h, read-out: mortality in comparison with untreated controls
Description: For evaluating control of vetch aphid (Megoura viciae) through contact or systemic means the test unit consisted of 24-well-microtiter plates containing broad bean leaf disks.
The compounds were formulated using a solution containing 75% v/v water and 25% v/v DMSO. Different concentrations of formulated compounds were sprayed onto the leaf disks at 2.5 μl, using a custom built micro atomizer, at two replications.
After application, the leaf disks were air-dried and 5-8 adult aphids placed on the leaf disks inside the microtiter plate wells. The aphids were then allowed to suck on the treated leaf disks and incubated at about 23±1° C. and about 50±5% relative humidity for 5 days. Aphid mortality and fecundity was then visually assessed.

[9] = system: Nezara viridula; test: Green soldier stink bug (Nezara viridula) soybean pod spray test; details: 120 h, read-out: mortality in comparison with untreated controls
Description: The active compound was dissolved at the desired concentration in a mixture of 1:1 (vol:vol) distilled water:acetone. Surfactant (Kinetic HV) was added at a rate of 0.01% (vol/vol). The test solution was prepared at the day of use. Soybean pods were placed in glass Petri dishes lined with moist filter paper and inoculated with ten late 3rd instar N. viridula. Using a hand atomizer, approximately 2 ml solution is sprayed into each Petri dish. Assay arenas were kept at about 25° C. Percent mortality was recorded after 5 days.

[10] = system: Myzus persicae; test: Green peach aphid (Myzus persicae) systemic artificial diet test; details: 72 h, read-out: mortality in comparison with untreated controls
Source text: For evaluating control of green peach aphid (Myzus persicae) through systemic means the test unit consisted of 96-well-microtiter plates containing liquid artificial diet under an artificial mem brane.
The compounds were formulated using a solution containing 75% v/v water and 25% v/v DMSO. Different concentrations of formulated compounds were pipetted into the aphid diet, using a custom built pipetter, at two replications.
After application, 5-8 adult aphids were placed on the artificial membrane inside the microtiter plate wells. The aphids were then allowed to suck on the treated aphid diet and incubated at about 23±1° C. and about 50±5% relative humidity for 3 days. Aphid mortality and fecundity was then visually assessed.

[11] = system: Nephotettix virescens; test: Rice green leafhopper (Nephotettix virescens) rice seedling spray test; details: 72 h, read-out: mortality in comparison with untreated controls
Description: Rice seedlings were cleaned and washed 24 hours before spraying. The active compounds were formulated in 1:1 acetone:water (vol:vol), and 0.01% vol/vol surfactant (Kinetic HV) was added. Potted rice seedlings were sprayed with 5-6 ml test solution, air dried, covered with Mylar cages and inoculated with 10 adults. Treated rice plants were kept at about 28-29° C. and relative humidity of about 50-60%. Percent mortality was recorded after 72 hours.

[12] = system: Spodoptera eridania; test: Southern armyworm (Spodoptera eridania) lima bean foliar spray test; details: 96 h, read-out: mortality in comparison with untreated controls
Description: The active compounds were formulated in cyclohexanone as a 10,000 ppm solution supplied in tubes. The tubes were inserted into an automated electrostatic sprayer equipped with an atomizing nozzle and they served as stock solutions for which lower dilutions were made in 50% acetone:50% water (v/v). A nonionic surfactant (Kinetic®) was included in the solution at a volume of 0.01% (v/v).
Lima bean plants (variety Sieva) were grown 2 plants to a pot and selected for treatment at the 1st true leaf stage. Test solutions were sprayed onto the foliage by an automated electrostatic plant sprayer equipped with an atomizing spray nozzle. The plants were dried in the sprayer fume hood and then removed from the sprayer. Each pot was placed into perforated plastic bags with a zip closure. About 10 to 11 armyworm larvae were placed into the bag and the bags zipped closed. Test plants were maintained in a growth room at about 25° C. and about 20-40% relative humidity for 4 days, avoiding direct exposure to fluorescent light (24 hour photoperiod) to prevent trapping of heat inside the bags. Mortality and reduced feeding were assessed 4 days after treatment, compared to untreated control plants.

Cc1cc(C2=NOC(c3cc(Cl)cc(Cl)c3)(C(F)(F)F)C2)ccc1C(=O)N[C@@H]1CCC(=O)N(CC(F)F)C1=O (stereo partly drawn) [Compound 1-18, 4-[5-(3,5-dichlorophenyl)-5-(trifluoromethyl)-4H-isoxazol-3-yl]-N-[(3R)-1-(2,2-difluoroethyl)-2,6-dioxo-3-piperidyl]-2-methyl-benzamide]
> 75%: mortality at 500 ppm [1] | mortality at 300 ppm [2] | mortality at 2500 ppm [3] | mortality at 100 ppm [4] | mortality at 300 ppm [5] | mortality at 2500 ppm [6] | mortality at 300 ppm [7] | mortality at 2500 ppm [8] | mortality at 300 ppm [9] | mortality at 2500 ppm [10] | mortality at 300 ppm [11]

CN1C(=O)CC[C@@H](NC(=O)c2ccc(C3=NOC(c4cc(Cl)c(F)c(Cl)c4)(C(F)(F)F)C3)cc2Cl)C1=O (stereo partly drawn) [Compound 1-1, 2-chloro-4[5-(3,5-dichloro-4-fluoro-phenyl)-5-(trifluoromethyl)-4H-isoxazol-3-yl]-N-[(3R)-1-methyl-2,6-dioxo-3-piperidyl]benzamide]
> 75%: mortality at 500 ppm [1] | mortality at 300 ppm [2] | mortality at 2500 ppm [3] | mortality at 100 ppm [4] | mortality at 10 ppm [12] | mortality at 300 ppm [5] | mortality at 2500 ppm [6] | mortality at 300 ppm [7] | mortality at 2500 ppm [8] | mortality at 300 ppm [9] | mortality at 2500 ppm [10] | mortality at 300 ppm [11]
